In patent publication US8058447B2, “4-Chromenonyl-1,4-dihydropyridinecarbonitriles and the use thereof” (Bayer Pharma Aktiengesellschaft, priority 2005, dated 2011):

biological target: T1, human mineralocorticoid receptor (MR) (Homo sapiens, UniProt P08235); assay: Cellular in vitro assay to determine the inhibitory MR activity (GAL4-MR chimera luciferase reporter in CHO K1 cells); type: cell-based; conditions: antagonism of aldosterone-stimulated luciferase in CHO K1 cells expressing GAL4-MR chimera
T1 construct: expressed in transfected cells
T1 sequence (P08235 734-984 limits assumed): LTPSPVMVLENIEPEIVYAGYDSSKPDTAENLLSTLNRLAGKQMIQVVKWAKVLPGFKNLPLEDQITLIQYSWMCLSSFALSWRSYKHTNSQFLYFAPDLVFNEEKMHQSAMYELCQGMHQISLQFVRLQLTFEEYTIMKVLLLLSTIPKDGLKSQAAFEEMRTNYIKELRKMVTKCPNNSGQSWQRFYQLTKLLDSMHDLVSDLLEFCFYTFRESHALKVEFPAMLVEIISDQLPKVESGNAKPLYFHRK
Source text: 1. Cellular In Vitro Assay to Determine the Inhibitory MR Activity and MR Selectivity Compared with Other Steroid Hormone Receptors
Antagonists of the human mineralocorticoid receptor (MR) are identified, and the activity of the compounds described herein is quantified with the aid of a recombinant cell line. The cell is originally derived from a hamster ovary epithelial cell (Chinese Hamster Ovary, CHO K1, ATCC: American Type Culture Collection, VA 20108, USA).
An established chimera system in which the ligand-binding domains of human steroid hormone receptors are fused to the DNA binding domain of the yeast transcription factor GAL4 is used in this CHO K1 cell line. The GAL4-steroid hormone receptor chimeras produced in this way are cotransfected and stably expressed with a reporter construct in the CHO cells.
To generate the GAL4-steroid hormone receptor chimeras, the GAL4 DNA binding domain (amino acids 1-147) from the vector pFC2-dbd (from Stratagene) is cloned with the PCR-amplified ligand-binding domains of the mineralocorticoid receptor (MR, amino acids 734-985), of the glucocorticoid receptor (GR, amino acids 443-777), of the progesterone receptor (PR, amino acids 680-933) and of the androgen receptor (AR, amino acids 667-919) into the vector pIRES2 (from Clontech). The reporter construct, which comprises five copies of the GAL4 binding site upstream of a thymidine kinase promoter, leads to expression of firefly luciferase (Photinus pyralis) after activation and binding of the GAL4-steroid hormone receptor chimeras by the respective specific agonists aldosterone (MR), dexamethasone (GR), progesterone (PR) and dihydrotestosterone (AR).
The MR, GR, PR and AR cells are plated out in medium (Optimem, 2.5% FCS, 2 mM glutamine, 10 mM HEPES) in 96- (or 384- or 1536-) well microtiter plates on the day before the assay and are kept in a cell incubator (96% humidity, 5% v/v CO2, 37° C.). On the day of the assay, the substances to be tested are taken up in the abovementioned medium and added to the cells. About 10 to 30 minutes after addition of the test substances, the respective specific agonists of the steroid hormone receptors are added. After a further incubation time of 5 to 6 hours, the luciferase activity is measured with the aid of a video camera. The measured relative light units as a function of the substance concentration result in a sigmoidal stimulation curve. The IC50 values are calculated with the aid of the GraphPad PRISM computer program (Version 3.02).

Row | SMILES | IC50 [nM]
1 | CC1=C(C#N)C(c2ccc(F)c3c(=O)cc(C)oc23)C(C(=O)CC2CCC2)=C(C)N1 (centres unmarked) [Example 13, 5-(Cyclobutylacetyl)-4-(5-fluoro-2-methyl-4-oxo-4H-chromen-8-yl)-2,6-dimethyl-1,4-dihydropyridine-3-carbonitrile] | 127
2 | CC1=C(C#N)C(c2cccc3c(=O)cc(C)oc23)C(C(=O)CC2CCCC2)=C(C)N1 (centres unmarked) [Example 41, 5-(Cyclopentylacetyl)-2,6-dimethyl-4-(2-methyl-4-oxo-4H-chromen-8-yl)-1,4-dihydropyridine-3-carbonitrile] | 290
3 | CC1=C(C#N)C(c2ccc(F)c3c(=O)cc(C)oc23)C(C(=O)CCC(C)C)=C(C)N1 (centres unmarked) [Example 14, 4-(5-Fluoro-2-methyl-4-oxo-4H-chromen-8-yl)-2,6-dimethyl-5-(4-methylpentanoyl)-1,4-dihydropyridine-3-carbonitrile] | 195
4 | CC1=C(C#N)C(c2ccc([N+](=O)[O-])c3c(=O)cc(C)oc23)C(C(=O)OC(C)C)=C(C)N1 (centres unmarked) [Example 32, Isopropyl 5-cyano-2,6-dimethyl-4-(2-methyl-5-nitro-4-oxo-4H-chromen-8-yl)-1,4-dihydropyridine-3-carboxylate] | 105
5 | CCOC(=O)C1=C(C)NC(C(F)(F)F)=C(C#N)C1c1cccc2c(=O)cc(C)oc12 (racemic) [Example 29, Ethyl 5-cyano-2-methyl-4-(2-methyl-4-oxo-4H-chromen-8-yl)-6-(trifluoromethyl)-1,4-dihydropyridine-3-carboxylate] | 193

Stronger by IC50, values ahead:

Row | IC50 [nM] | SMILES
6 | 22 | CC1=C(C#N)[C@@H](c2cc(F)c(F)c3c(=O)cc(C)oc23)C(C(=O)OC2CCC2)=C(C)N1 (single isomer, unassigned) [Example 18]
7 | 89 | CCOC(=O)C1=C(C)NC(C(F)(F)F)=C(C#N)[C@H]1c1cccc2c(=O)cc(C)oc12 (single isomer, unassigned) [Example 30]
8 | 93 | CC1=C(C#N)C(c2ccc(F)c3c(=O)cc(C)oc23)C(C(=O)CCC2CCC2)=C(C)N1 (centres unmarked) [Example 15, 5-(3-Cyclobutylpropanoyl)-4-(5-fluoro-2-methyl-4-oxo-4H-chromen-8-yl)-2,6-dimethyl-1,4-dihydropyridine-3-carbonitrile]
